Like-named read-outs stand apart in the source and are kept apart here.
Experiments:
[1] = target: Cy5-labelled Mcl1 (amino acids 171-321) C286S protein (UniProtKB Q07820) (Homo sapiens (Human), UniProt Q07820, C286S); assay: Inhibition of Mcl-1 by the fluorescence quenching assay (Example A, Method B); type: binding
Procedure, shortened: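 Cy5-labelled Mcl1 171-321 C286S (1 nM) quenched by TQ5WS-labelled PUMA peptide (10, 20 or 400 nM); displacement raises fluorescence (Ex 620/Em 680 nm). Buffer 10 mM HEPES, 150 mM NaCl, 0.05% Tween 20, pH 7.4, 5% DMSO; 2 h at room temperature, 11-point curves, IC50 converted to Ki (cKi/eKi).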

NCI-H929 cell lines = assay: In vitro cytotoxicity, CellTiter-Glo (CTG) assay (Example B, Method B); type: cell-based; settings: NCI-H929 cells, 48 h incubation, read-out: C50
Procedure, shortened: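 NCI-H929 cells exposed to an 11-point compound series from 10 mM DMSO stocks (top final 30 μM) for 48 h at 37° C., 5% CO2. Viability measured as ATP by CellTiter-Glo luminescence; C50 is the concentration giving 50% cellular viability.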

Cy5-labelled Mcl1 (amino acids 171-321) C286S protein, sequence (Q07820 171-321 C286S): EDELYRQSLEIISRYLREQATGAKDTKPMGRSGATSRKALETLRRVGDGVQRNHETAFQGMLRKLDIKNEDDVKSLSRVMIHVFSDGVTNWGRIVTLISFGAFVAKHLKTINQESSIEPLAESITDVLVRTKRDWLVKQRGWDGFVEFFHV

Row | Ki [1] | inhibition at 1 µM ([1]; @ 1 μM, read-out: Mcl-1 inhibition, % at a single concentration) | Ki ([1]; Ki determined from IC50) | Compound | IC50 (NCI-H929 cell lines; Homo sapiens, NCI-H929, 48 h) | IC50 (NCI-H929 cell lines)
1 | 0.228 nM |  |  | C[C@@H](COc1ccnc2c1[C@H](C)CCC2)C[C@H]1Cc2cc3c(cc2[C@]12CC[C@@](Nc1cccc(Cl)c1)(C(=O)O)CC2)OC(F)(F)O3 [Example 849, (1r,4S,6′S)-4-(3-chloroanilino)-2′,2′-difluoro-6′-[(2R)-2-methyl-3-{[(5R)-5-methyl-5,6,7,8-tetrahydroquinolin-4-yl]oxy}propyl]-6′,7′-dihydro-2′H-spiro[cyclohexane-1,5′-indeno[5,6-d][1,3]dioxole]-4-carboxylic acid] | 90.5 nM | 
2 | 0.0573 nM |  |  | CCCOc1ccc2c(c1)[C@]1(CC[C@@](Nc3cccc(Cl)c3)(C(=O)O)CC1)[C@@H](C[C@@H](C)COc1ccnc3c1[C@H](C)CCC3)C2 [Example 787, (1r,2′S,4S)-4-(3-chloroanilino)-2′-[(2R)-2-methyl-3-{[(5R)-5-methyl-5,6,7,8-tetrahydroquinolin-4-yl]oxy}propyl]-6′-propoxy-2′,3′-dihydrospiro[cyclohexane-1,1′-indene]-4-carboxylic acid] | 103 nM | 
3 | 1.84 nM |  |  | C[C@@H](COc1ccnc2c1[C@H](C)CCC2)C[C@@H]1Cc2ccc(-c3cc[nH]c3)cc2[C@]12CC[C@@](Nc1cccc(Cl)c1)(C(=O)O)CC2 [Example 882, (1r,2′R,4R)-4-(3-chloroanilino)-2′-[(2R)-2-methyl-3-{[(5R)-5-methyl-5,6,7,8-tetrahydroquinolin-4-yl]oxy}propyl]-6′-(1H-pyrrol-3-yl)-2′,3′-dihydrospiro[cyclohexane-1,1′-indene]-4-carboxylic acid] | 1300 nM | 
4 | 0.0783 nM |  |  | CCOc1cc2c(cc1F)C[C@H](C[C@@H](C)COc1ccnc3c1[C@H](C)CCC3)[C@]21CC[C@](Nc2cccc(Cl)c2)(C(=O)O)CC1 [Example 818, (1r,2′S,4S)-4-(3-chloroanilino)-6′-ethoxy-5′-fluoro-2′-[(2R)-2-methyl-3-{[(5R)-5-methyl-5,6,7,8-tetrahydroquinolin-4-yl]oxy}propyl]-2′,3′-dihydrospiro[cyclohexane-1,1′-indene]-4-carboxylic acid] | 106 nM | 
5 | 14 nM |  |  | CC1CCNc2nccc(OC[C@H](C)C[C@H]3Cc4ccccc4[C@]34CC[C@@](Nc3cccc(Cl)c3)(C(=O)O)CC4)c21 (single isomer, unassigned) [Example 641] |  | 3030 nM
6 | 0.0843 nM |  |  | COC[C@@H]1C[C@H]1c1ccc2c(c1)[C@]1(CC[C@@](Nc3cccc(Cl)c3)(C(=O)O)CC1)[C@@H](C[C@@H](C)COc1ccnc3c1[C@H](C)CCC3)C2 [Example 875, (1r,2′S,4S)-4-(3-chloroanilino)-6′-[(1R,2R)-2-(methoxymethyl)cyclopropyl]-2′-[(2R)-2-methyl-3-{[(5R)-5-methyl-5,6,7,8-tetrahydroquinolin-4-yl]oxy}propyl]-2′,3′-dihydrospiro[cyclohexane-1,1′-indene]-4-carboxylic acid] | 59.7 nM | 
7 | 0.0173 nM |  |  | C[C@@H](COc1ccnc2c1[C@H](C)CCC2)C[C@H]1Cc2cc3c(cc2[C@]12CC[C@@](Nc1cccc(Cl)c1)(C(=O)O)CC2)OCC3 [Example 850, (1r,4S,6′S)-4-(3-chloroanilino)-6′-[(2R)-2-methyl-3-{[(5R)-5-methyl-5,6,7,8-tetrahydroquinolin-4-yl]oxy}propyl]-2′,3′,5′,6′-tetrahydrospiro[cyclohexane-1,7′-indeno[5,6-b]furan]-4-carboxylic acid] | 50.9 nM | 
8 | 0.154 nM |  |  | C[C@@H](COc1ccnc2c1[C@H](C)CCC2)C[C@H]1Cc2ccc(-c3cccn3C)cc2[C@]12CC[C@@](Nc1cccc(Cl)c1)(C(=O)O)CC2 [Example 881, (1r,2′S,4S)-4-(3-chloroanilino)-2′-[(2R)-2-methyl-3-{[(5R)-5-methyl-5,6,7,8-tetrahydroquinolin-4-yl]oxy}propyl]-6′-(1-methyl-1H-pyrrol-2-yl)-2′,3′-dihydrospiro[cyclohexane-1,1′-indene]-4-carboxylic acid] | 153 nM | 
9 | 0.282 nM |  |  | C[C@@H](COc1ccnc2c1[C@H](C)CCC2)C[C@H]1Cc2ccccc2[C@]12CC[C@@](Nc1cccc(Cl)c1)(C(=O)O)CC2 [Example 653, (1r,2′S,4S)-4-(3-chloroanilino)-2′-[(2R)-2-methyl-3-{[(5R)-5-methyl-5,6,7,8-tetrahydroquinolin-4-yl]oxy}propyl]-2′,3′-dihydrospiro[cyclohexane-1,1′-indene]-4-carboxylic acid] | 113 nM | 
10 | 0.0375 nM |  |  | CC(O)c1ccc2c(c1)[C@]1(CC[C@@](Nc3cccc(Cl)c3)(C(=O)O)CC1)[C@@H](C[C@@H](C)COc1ccnc3c1[C@H](C)CCC3)C2 (single isomer, unassigned) [Example 859] |  | 43.7 nM

Continued, compound first:

Row | Compound | Ki [1] | inhibition at 1 µM ([1]; @ 1 μM, read-out: Mcl-1 inhibition, % at a single concentration) | Ki ([1]; Ki determined from IC50) | IC50 (NCI-H929 cell lines; Homo sapiens, NCI-H929, 48 h) | IC50 (NCI-H929 cell lines)
11 | C[C@@H](COc1ccnc2c1[C@H](C)CCC2)CC1=Cc2c(Cl)c(Cl)ccc2[C@]12CC[C@@](Nc1cccc(Cl)c1)(C(=O)O)CC2 [Example 750, (1r,4R)-4′,5′-dichloro-4-(3-chloroanilino)-2′-[(2R)-2-methyl-3-{[(5R)-5-methyl-5,6,7,8-tetrahydroquinolin-4-yl]oxy}propyl]spiro[cyclohexane-1,1′-indene]-4-carboxylic acid] | 1.06 nM |  |  | 378 nM | 
12 | CC[C@@H]1COc2cc3c(cc2O1)C[C@H](C[C@@H](C)COc1ccnc2c1[C@H](C)CCC2)[C@]31CC[C@](Nc2cccc(Cl)c2)(C(=O)O)CC1 [Example 980, (1r,2′R,4S,7′S)-4-(3-chloroanilino)-2′-ethyl-7′-[(2R)-2-methyl-3-{[(5R)-5-methyl-5,6,7,8-tetrahydroquinolin-4-yl]oxy}propyl]-2′,3′,7′,8′-tetrahydrospiro[cyclohexane-1,6′-indeno[5,6-b][1,4]dioxine]-4-carboxylic acid] | 0.102 nM |  |  | 142 nM | 
13 | CC(C)OC(=O)OC(C)OC(=O)[C@]1(Nc2cccc(Cl)c2)CC[C@@]2(CC1)c1cc3c(cc1C[C@@H]2C[C@@H](C)COc1ccnc2c1[C@H](C)CCC2)OCO3 (stereo partly drawn) [Example 944, 1-({[(propan-2-yl)oxy]carbonyl}oxy)ethyl (1r,4S,6′S)-4-(3-chloroanilino)-6′-[(2R)-2-methyl-3-{[(5R)-5-methyl-5,6,7,8-tetrahydroquinolin-4-yl]oxy}propyl]-6′,7′-dihydro-2′H-spiro[cyclohexane-1,5′-indeno[5,6-d][1,3]dioxole]-4-carboxylate] |  | 13.9% |  | 2130 nM | 
14 | C[C@@H](COc1ccnc2c1[C@H](C)CCC2)C[C@H]1Cc2cc3c(cc2[C@]12CC[C@@](Nc1cccc(Cl)c1)(C(=O)O)CC2)OC[C@@H](C)O3 [Example 974, (1r,2′R,4S,7′S)-4-(3-chloroanilino)-2′-methyl-7′-[(2R)-2-methyl-3-{[(5R)-5-methyl-5,6,7,8-tetrahydroquinolin-4-yl]oxy}propyl]-2′,3′,7′,8′-tetrahydrospiro[cyclohexane-1,6′-indeno[5,6-b][1,4]dioxine]-4-carboxylic acid] | 0.023 nM |  |  | 60.4 nM | 
15 | CCC1Oc2cc3c(cc2O1)[C@]1(CC[C@@](Nc2cccc(Cl)c2)(C(=O)O)CC1)[C@@H](C[C@@H](C)COc1ccnc2c1[C@H](C)CCC2)C3 (single isomer, unassigned) [Example 967] | 0.0263 nM |  |  | 137 nM | 
16 | C[C@@H](COc1c(Cl)cnc2c1[C@H](C)CCC2)C[C@H]1Cc2cc3c(cc2[C@]12CC[C@@](Nc1ccc(F)c(Cl)c1)(C(=O)O)CC2)OCO3 [Example 886, (1r,4S,6′S)-4-(3-chloro-4-fluoroanilino)-6′-[(2R)-3-{[(5R)-3-chloro-5-methyl-5,6,7,8-tetrahydroquinolin-4-yl]oxy}-2-methylpropyl]-6′,7′-dihydro-2′H-spiro[cyclohexane-1,5′-indeno[5,6-d][1,3]dioxole]-4-carboxylic acid] | 0.145 nM |  |  | 381 nM | 
17 | COCCCOc1cc2c(cc1Cl)C[C@H](C[C@@H](C)COc1ccnc3c1[C@H](C)CCC3)[C@]21CC[C@](Nc2cccc(Cl)c2)(C(=O)O)CC1 [Example 823, (1r,2′S,4S)-5′-chloro-4-(3-chloroanilino)-6′-(3-methoxypropoxy)-2′-[(2R)-2-methyl-3-{[(5R)-5-methyl-5,6,7,8-tetrahydroquinolin-4-yl]oxy}propyl]-2′,3′-dihydrospiro[cyclohexane-1,1′-indene]-4-carboxylic acid] | 0.108 nM |  |  | 128 nM | 
18 | Cc1c(Cl)cccc1N[C@]1(C(=O)O)CC[C@]2(CC1)c1ccc(F)cc1CN2C[C@@H](C)COc1ccnc2c1[C@H](C)CCC2 [Example 52, (1s,4S)-4-(3-chloro-2-methylanilino)-5′-fluoro-2′-[(2R)-2-methyl-3-{[(5R)-5-methyl-5,6,7,8-tetrahydroquinolin-4-yl]oxy}propyl]-2′,3′-dihydrospiro[cyclohexane-1,1′-isoindole]-4-carboxylic acid] |  |  | 0.583 nM | 454 nM | 
19 | C[C@@H](COc1ccnc2c1[C@H](C)CCC2)C[C@H]1Cc2cc3c(cc2[C@]12CC[C@@](Nc1cccc(Cl)c1)(C(=O)O)CC2)OCCCCO3 [Example 836, (1r,4S,9′S)-4-(3-chloroanilino)-9′-[(2R)-2-methyl-3-{[(5R)-5-methyl-5,6,7,8-tetrahydroquinolin-4-yl]oxy}propyl]-2′,3′,4′,5′,9′,10′-hexahydrospiro[cyclohexane-1,8′-indeno[5,6-b][1,4]dioxocine]-4-carboxylic acid] | 0.0472 nM |  |  | 106 nM | 
20 | CC1COc2cc3c(cc2OC1)[C@]1(CC[C@@](Nc2cccc(Cl)c2)(C(=O)O)CC1)[C@@H](C[C@@H](C)COc1ccnc2c1[C@H](C)CCC2)C3 (single isomer, unassigned) [Example 983] | 0.037 nM |  |  |  | 74.4 nM
